ChEMBL document CHEMBL3414435, “Computer aided drug discovery of highly ligand efficient, low molecular weight imidazopyridine analogs as FLT3 inhibitors” (Eur J Med Chem, 2015)

Tests used:
[1] = molecular target: T1, Receptor-type tyrosine-protein kinase FLT3 (Homo sapiens, UniProt P36888)
T1 sequence (P36888 whole entry): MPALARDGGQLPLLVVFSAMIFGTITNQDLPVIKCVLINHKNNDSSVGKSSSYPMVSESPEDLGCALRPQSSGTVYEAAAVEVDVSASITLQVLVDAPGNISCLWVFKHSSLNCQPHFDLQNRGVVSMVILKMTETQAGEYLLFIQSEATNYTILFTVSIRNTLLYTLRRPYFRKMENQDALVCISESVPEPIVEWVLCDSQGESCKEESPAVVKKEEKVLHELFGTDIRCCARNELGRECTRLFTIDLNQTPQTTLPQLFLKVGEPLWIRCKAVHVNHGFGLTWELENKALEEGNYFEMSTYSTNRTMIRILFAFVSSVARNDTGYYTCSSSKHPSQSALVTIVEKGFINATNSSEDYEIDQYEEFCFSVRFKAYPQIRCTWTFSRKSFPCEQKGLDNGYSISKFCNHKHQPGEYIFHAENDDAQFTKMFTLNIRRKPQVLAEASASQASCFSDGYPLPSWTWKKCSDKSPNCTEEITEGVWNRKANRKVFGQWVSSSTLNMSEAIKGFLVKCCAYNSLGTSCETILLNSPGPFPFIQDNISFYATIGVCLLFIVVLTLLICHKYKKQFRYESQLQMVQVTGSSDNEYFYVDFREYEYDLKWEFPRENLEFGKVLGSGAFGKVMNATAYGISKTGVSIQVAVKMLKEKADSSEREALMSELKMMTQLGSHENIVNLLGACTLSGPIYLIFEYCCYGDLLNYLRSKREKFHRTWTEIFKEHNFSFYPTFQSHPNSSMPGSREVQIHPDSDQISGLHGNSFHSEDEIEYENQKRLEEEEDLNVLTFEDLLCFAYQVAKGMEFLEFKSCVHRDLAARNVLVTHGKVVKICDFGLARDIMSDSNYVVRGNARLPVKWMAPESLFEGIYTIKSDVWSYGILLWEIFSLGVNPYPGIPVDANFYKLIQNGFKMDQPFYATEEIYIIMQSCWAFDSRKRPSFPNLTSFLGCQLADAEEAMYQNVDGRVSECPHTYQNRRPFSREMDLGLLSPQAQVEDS

[2] = molecular target: Receptor-type tyrosine-protein kinase FLT3 (Homo sapiens) (UniProt P36888); settings: at 20 µM
[3] = system: Receptor-type tyrosine-protein kinase FLT3 (Homo sapiens), P36888 [UNDEFINED MUTATION]; assay: Inhibition of FLT3 ITD mutant (unknown origin) expressed in mouse BAF3 cells assessed as cell growth inhibition after 48 hrs by CellTiter-Glo assay; format: cell-based
[4] = system: Receptor-type tyrosine-protein kinase FLT3 (Homo sapiens), P36888 [UNDEFINED MUTATION]; assay: Inhibition of FLT3 ITD D835V mutant (unknown origin) expressed in mouse BAF3 cells assessed as cell growth inhibition after 48 hrs by CellTiter-Glo assay; format: cell-based
[5] = system: Receptor-type tyrosine-protein kinase FLT3 (Homo sapiens), P36888 [UNDEFINED MUTATION]; assay: Inhibition of FLT3 ITD F691L mutant (unknown origin) expressed in mouse BAF3 cells assessed as cell growth inhibition after 48 hrs by CellTiter-Glo assay; format: cell-based
[6] = system: Receptor-type tyrosine-protein kinase FLT3 (Homo sapiens), P36888 [UNDEFINED MUTATION]; assay: Inhibition of FLT3 ITD mutant in human MOLM14 cells assessed as cell growth inhibition after 48 hrs by CellTiter-Glo assay; format: cell-based; settings: MOLM-14
[7] = system: Receptor-type tyrosine-protein kinase FLT3 (Homo sapiens), P36888 [UNDEFINED MUTATION]; assay: Inhibition of FLT3 ITD mutant in human MV4-11 cells assessed as cell growth inhibition after 48 hrs by CellTiter-Glo assay; format: cell-based

| SMILES | IC50 [1] | inhibition [2] | also measured |
| --- | --- | --- | --- |
| N#Cc1cc(-c2cnc3cc(-c4ccco4)ccn23)ccc1F | 470 nM | 98.7% | – |
| COc1ccc(-c2ccn3c(-c4ccc(C)cc4)cnc3c2)cc1 | 440 nM | 91.4% | – |
| N#Cc1cc(-c2cnc3ccccn23)ccc1F | – | 61.3% | – |
| N#Cc1cc(-c2cnc3cc(-c4ccccc4)ccn23)ccc1F | 230 nM | 94.1% | – |
| N#CCc1ccc(-c2cnc3cc(-c4cccs4)ccn23)cc1 | 51 nM | 98% | – |
| Fc1ccc(-c2cnc3cc(-c4ccco4)ccn23)cc1 | 41 nM | 99.3% | GI50 [3]: 484 nM; GI50 [4]: > 1000 nM; GI50 [5]: > 1000 nM; GI50 [6]: 712 nM; GI50 [7]: 830 nM |
| COc1ccc(-c2ccn3ccnc3c2)cc1 | – | 33.9% | – |
| N#CCc1ccc(-c2cnc3cc(-c4ccccc4)ccn23)cc1 | 550 nM | 96.4% | – |
| Cc1ccc(-c2cnc3cc(-c4ccccc4)ccn23)cc1 | 300 nM | 94.1% | – |
| COc1ccc(-c2ccn3c(-c4ccc(F)cc4)cnc3c2)cc1 | 78 nM | 98.6% | – |
| Fc1ccc(-c2cnc3cc(-c4ccccc4)ccn23)cc1 | 16 nM | 98.8% | GI50 [3]: 333 nM; GI50 [6]: 513 nM; GI50 [7]: 706 nM |
| c1ccc(-c2ccn3ccnc3c2)cc1 | – | 0% | – |
| Cc1ccc(-c2cnc3cc(-c4cccs4)ccn23)cc1 | – | 89.7% | – |
| Cc1ccc(-c2cnc3cc(-c4ccco4)ccn23)cc1 | 160 nM | 95.5% | – |
| COc1ccc(-c2ccn3c(-c4ccc(CC#N)cc4)cnc3c2)cc1 | 430 nM | 91% | – |
| Cc1ccc(-c2cnc3ccccn23)cc1 | – | 77% | – |
| Fc1ccc(-c2cnc3ccccn23)cc1 | 480 nM | 94.8% | – |
| COc1ccc(-c2ccn3c(-c4ccc(F)c(C#N)c4)cnc3c2)cc1 | – | 81.4% | – |
| c1csc(-c2ccn3ccnc3c2)c1 | – | 79.8% | – |
| Clc1ccn2ccnc2c1 | – | 23.8% | – |
| c1coc(-c2ccn3ccnc3c2)c1 | – | 67.1% | – |
| N#CCc1ccc(-c2cnc3ccccn23)cc1 | – | 20% | – |
| N#CCc1ccc(-c2cnc3cc(-c4ccco4)ccn23)cc1 | 190 nM | 97.8% | – |
| c1ccn2ccnc2c1 | – | 14.6% | – |
| N#Cc1cc(-c2cnc3cc(-c4cccs4)ccn23)ccc1F | – | 29.7% | – |
